Measured values from ChEMBL document CHEMBL1158236, “Two new naphthoquinones with antiviral activity from Rhinacanthus nasutus” (J Nat Prod, 1996).
Values after ≈ are worked out from the molar mass of the structure shown.

How the values were obtained:
Assay type in all cases: functional, organism-based
Murid betaherpesvirus 1 [1] = experiment: Antiviral activity against mouse cytomegalovirus assessed as effect on virus-induced cytopathic effect
Murid betaherpesvirus 1 [2] = experiment: Antiviral activity against mouse cytomegalovirus by plaque-neutralization assay
Human betaherpesvirus 5 = experiment: Antiviral activity against human cytomegalovirus by plaque-neutralization assay
Human alphaherpesvirus 2 = experiment: Antiviral activity against herpes simplex virus type 2 assessed as effect on virus-induced cytopathic effect
Influenza A virus = experiment: Antiviral activity against influenza A virus by hemadsorption inhibition assay
[3] = tested on: Respiratory syncytial virus; experiment: Antiviral activity against respiratory syncytial virus assessed as effect on virus-induced cytopathic effect; conditions: human respiratory syncytial virus

For `CC(C)(COC(=O)c1ccc2c(c1)OCO2)CC1=C(O)C(=O)c2ccccc2C1=O`, the EC50 (Murid betaherpesvirus 1 [1]) was 9.5 µg/mL (≈ 23.3 µM), the EC50 (Murid betaherpesvirus 1 [2]) was 9.5 µg/mL (≈ 23.3 µM) and the EC50 (Human betaherpesvirus 5) was 0.22 µg/mL (≈ 0.539 µM).

For `Nc1nc2c(ncn2COCCO)c(=O)[nH]1` [ACYCLOVIR], the EC50 (Human alphaherpesvirus 2) was 2.3 µg/mL (≈ 10.2 µM).

For `NC12CC3CC(CC(C3)C1)C2` [AMANTADINE], the EC50 (Influenza A virus) was 0.054 µg/mL (≈ 0.357 µM).

`Nc1nc2c(ncn2COC(CO)CO)c(=O)[nH]1` [GANCICLOVIR] was tested, and the EC50 (Murid betaherpesvirus 1 [1]) was 5 µg/mL (≈ 19.6 µM), the EC50 (Murid betaherpesvirus 1 [2]) was 13.8 µg/mL (≈ 54.1 µM) and the EC50 (Human betaherpesvirus 5) was 3.4 µg/mL (≈ 13.3 µM).

With `C/C=C(\C)CC/C=C(\C)C(=O)OCC(C)(C)CC1=C(O)C(=O)c2ccccc2C1=O` [RHINACANTHIN C] the EC50 (Murid betaherpesvirus 1 [1]) was 1.1 µg/mL (≈ 2.68 µM), the EC50 (Murid betaherpesvirus 1 [2]) was 0.57 µg/mL (≈ 1.39 µM) and the EC50 (Human betaherpesvirus 5) was 0.02 µg/mL (≈ 0.0487 µM).

Work on `NC(=O)c1ncn([C@@H]2O[C@H](CO)[C@@H](O)[C@H]2O)n1` [RIBAVIRIN] yielded an EC50 [3] of 1.8 µg/mL (≈ 7.37 µM).
